Source: patent US6355665B1, “1H-4(5)-substituted imidazole derivatives, their preparation and their use as histamine H3 receptor ligands” (James Black Foundation Limited, priority 1997, dated 2002)
Like-named read-outs stand apart in the source and are kept apart here.

Experiments:
Histamine H3 receptor [1] = molecular target: T1, Histamine H3 receptor (Cavia porcellus, UniProt Q9JI35); experiment: Histamine H3 radioligand binding assay, guinea pig cortex ([3H]-R-α-methylhistamine); set-up: The cortex was dissected, weighed and homogenised in ice-cold 20 mM Hepes-NaOH buffer; from tissue; host or cells: guinea pig cerebral cortex membranes
Procedure: Histamine H3 Radioligand Binding Assay—Guinea Pig Cortex
Male Dunkin Hartley guinea pigs (200-300 g) were used. The whole brain was removed and immediately placed in ice-cold 20 mM Hepes-NaOH buffer (pH7.4 at 21±3° C.). The cortex was dissected, weighed and homogenised in ice-cold 20 mM Hepes-NaOH buffer (pH7.4 at 21±3° C.) (50 ml/guinea-pig cortex) using a polytron (Kinematica AG; PT-DA 3020/2TS, 3×3 s). The homogenate was centrifuged at 100×g for 5 min and the supernatants pooled and stored at 4° C. The pellets were rehomogenised in fresh ice-cold buffer (80 ml) and recentrifuged (100×g for 5 min). The supernatants were pooled and pellets rehomogenised and recentrifuged (100×g for 5 min). All supernatants were pooled and centrifuged at 39,800×g for 12 min at 4° C. The final pellet was resuspended in 20 mM Hepes-NaOH buffer (pH7.4 at 21±3° C.) to a tissue concentration of 7.5 mg.ml^−1, using a teflon-in-glass homogeniser.
Incubation Conditions and Data Analysis
These were essentially identical to those used for the guinea pig ileum myenteric plexus assay described above, except that the final assay concentration of [^3H]-R-α-methylhistamine was 0.1 nM. Typical variance in this assay is ±0.12 log units.

Histamine H3 receptor [2] = molecular target: T1, Histamine H3 receptor; experiment: ileal longitudinal muscle, myenteric plexus functional assay (rightward shift of R-(α)-methylhistamine E/[A] curves, Schild); format: cell-based; set-up: the longitudinal muscle layer and adhering myenteric plexus was teased away; from tissue; host or cells: guinea pig ileal longitudinal muscle with myenteric plexus (organ bath); settings: guinea pig ileum longitudinal muscle myenteric plexus, electrically stimulated; antagonism of R-(α)-methylhistamine; typical variance ±0.15 log units; read-out: pKB (functional assay) - ileum (converted)
Procedure: The biological activity of the compounds of the examples was measured using the ileal longitudinal muscle, myenteric plexus assay described by Paton and Aboo Zar (J. Physiol. 1968, 194, 13-33). Male Dunkin-Hartley guinea pigs (250-300 g) were employed. Briefly, a 50 cm portion of ileum proximal to the caecum was removed, after discarding the terminal 20 cm. Ileal segments (3 cm) were cleaned by passing Krebs-Henseleit buffer containing 3 μM mepyramine gently through the ileum using a Pasteur pipette (size: 13.8 cm length, 0.65 cm diameter). To avoid unnecessary damage to the tissue, Krebs-Henseleit buffer was passed through the ileal segment, while it was lying horizontally on a petri dish. Therefore, the ileum was not over-distended and the buffer flowed through with ease. Each segment was then passed over a Pasteur pipette and the longitudinal muscle layer and adhering myenteric plexus was teased away using moist cotton wool, by stroking tangentially away from the mesenteric attachment. The tissues were suspended in 20 ml organ baths containing Krebs-Henseleit buffer at 37±1° C. and gassed with 95% CO2/5% O2. The tissues were ligated to two parallel stainless steel wires, situated between two platinum electrodes (0.76 cm length, 0.06 cm diameter). All measurements were recorded isometrically (Grass FTO3 transducer). Following an initial loading tension of 1 g, the tissues were stimulated with electrical pulses at a frequency of 0.1 Hz and a pulse duration of 0.5 msec, as described by Kosterlitz & Watt (Br. J. Pharmacol. 1968, 266-276). Initially, the tissues were stimulated at supramaximal (1.3 fold times maximal) voltage for a period of 30 min and then the tissues were washed and re-stimulated. A “sighter dose” of the selective histamine H3-receptor agonist, R-(α)-methylhistamine (0.3 μM) (Arrang et al. Nature, 1987, 117-123), was administered. Upon generation of response, the “sighter dose” was removed from the tissues by “washout” (6 washes over 60 min) and during this period the electrical stimulation was switched off. The tissues were then re-stimulated and allowed to stabilise prior to the addition of drug treatments, which were allocated on a randomised block basis to the organ baths. Following the incubation period, a single cumulative E/[A] curve was obtained. The experimental E/[A] curve data was expressed as the percentage inhibition of the peak height of electrically-stimulated contraction. Antagonist affinity values were calculated from the degree of rightward shift of the R-(α)-methylhistamine E/[A] curves using Schild's methods (Arunlakshana & Schild Br. J. Pharmacol. 1959, 48-58). Typical variance in this assay is ±0.15 log units.

[3] = guinea pig cortex membranes, [3H]-R-α-methylhistamine 0.1 nM, typical variance ±0.12 log units, read-out: pKI (binding assay) - cortex (converted)

T1 sequence (Q9JI35 whole entry): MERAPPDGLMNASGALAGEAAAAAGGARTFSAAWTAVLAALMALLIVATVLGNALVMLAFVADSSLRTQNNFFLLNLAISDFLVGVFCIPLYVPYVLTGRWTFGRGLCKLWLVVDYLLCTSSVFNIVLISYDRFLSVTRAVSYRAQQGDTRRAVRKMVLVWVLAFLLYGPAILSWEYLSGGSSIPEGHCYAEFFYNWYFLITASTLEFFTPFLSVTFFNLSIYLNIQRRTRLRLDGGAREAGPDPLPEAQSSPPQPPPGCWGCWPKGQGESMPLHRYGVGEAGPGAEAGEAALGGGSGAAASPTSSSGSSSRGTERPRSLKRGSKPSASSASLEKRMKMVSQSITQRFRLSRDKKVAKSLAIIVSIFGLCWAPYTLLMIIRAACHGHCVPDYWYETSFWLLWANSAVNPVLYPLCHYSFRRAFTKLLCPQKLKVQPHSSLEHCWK

Ki (Histamine H3 receptor [1]; [3]) [nM] | Kb (Histamine H3 receptor [2]) [nM] | SMILES | Ki (Histamine H3 receptor [1]) [nM]
7.24 | 29.5 | O=S(=O)(CCCCCc1c[nH]cn1)NCCc1ccc(Cl)cc1 [Example 11, N-(4-Chlorophenethyl)-5-(1H-imidazol-4-yl)-1-pentanesulfonamide] | –
28.8 | 79.4 | O=S(=O)(CC(O)CCCc1c[nH]cn1)NCc1cccc(Cl)c1 (stereo not drawn) [Example 22, N-(3-Chlorobenzyl)-2-hydroxy-5-(1H-imidazol-4-yl)-1-pentanesulfonamide] | –
186 | 174 | O=S(=O)(CCCCCc1c[nH]cn1)NCC12CC3CC(CC(C3)C1)C2 [Example 31, N-(1-Adamantylmethyl)-5-(1H-imidazol-4-yl)-1-pentanesulfonamide] | –
200 | 1550 | O=S(=O)(CCCCCc1c[nH]cn1)N(Cc1ccccc1)Cc1ccc(Cl)cc1 [Example 36, N-Benzyl-N-(4-chlorobenzyl)-5-(1H-imidazol-4-yl)-1-pentanesulfonamide] | –
21.9 | 46.8 | O=S(=O)(CCCCCc1c[nH]cn1)NCC1CCCCC1 [Example 17, N-Cyclohexylmethyl-5-(1H-imidazol-4-yl)-1-pentanesulfonamide] | –
19.5 | 245 | O=S(=O)(CCCCCc1c[nH]cn1)NCc1ccccc1Cl [Example 19, N-(2-Chlorobenzyl)-5-(1H-imidazol-4-yl)-1-pentanesulfonamide] | –
2.95 | 24.5 | CNC(CCCc1c[nH]cn1)CS(=O)(=O)NCc1ccc(Cl)cc1 (stereo not drawn) [Example 39, N-(4-Chlorobenzyl)-2-methylamino-5-(1H-imidazol-4-yl)-1-pentanesulfonamide] | –
6.61 | 20.4 | O=[N+]([O-])CC(CCCc1c[nH]cn1)CS(=O)(=O)NCc1ccc(Cl)cc1 (stereo not drawn) [Example 37, N-(4-Chlorobenzyl)-2-nitromethyl-5-(1H-imidazol-4-yl)-1-pentanesulfonamide] | –
741 | – | O=S(=O)(CC(O)CCc1c[nH]cn1)NCCc1ccc(Cl)cc1 (stereo not drawn) [Example 10, N-(4Chlorophenethyl)-2-hydroxy-4-(1H-imidazol-4-yl)-1-butanesulfonamide] | –
0.891 | 3.39 | O=S(=O)(CCCCCc1c[nH]cn1)NCc1ccc(Br)cc1 [Example 15, N-(4-Bromobenzyl)-5-(1H-imidazol-4-yl)-1-pentanesulfonamide] | –
1580 | 2630 | O=S(=O)(/C=C/C=C/c1c[nH]cn1)NCc1ccc(Cl)cc1 [Example 41, (E,E)-N-(4-Chlorobenzyl)-4-(1H-imidazol-4-yl)-1-but-1,3-dienesulfonamide] | –
126 | 331 | O=S(=O)(CC(O)CCCc1c[nH]cn1)NCc1ccccc1Cl (stereo not drawn) [Example 20, N-(2-Chlorobenzyl)-2-hydroxy-5-(1H-imidazol-4-yl)-1-pentanesulfonamide] | –
61.7 | 257 | O=C(CCc1c[nH]cn1)CS(=O)(=O)NCc1ccc(Cl)cc1 [Example 4, N-(4-Chlorobenzyl)-2-oxy-4-(1H-imidazol-4-yl)-1-butanesulfonamide] | –
1.32 | 12.3 | NCC(CCCc1c[nH]cn1)CS(=O)(=O)NCc1ccc(Cl)cc1 (stereo not drawn) [Example 38, 2-Aminomethyl-N-(4-chlorobenzyl)-5-(1H-imidazol-4-yl)-1-pentanesulfonamide] | –
1.12 | 18.2 | O=S(=O)(CC(O)CCCc1c[nH]cn1)NCc1ccc(Br)cc1 (stereo not drawn) [Example 16, N-(4-Bromobenzyl)-2-hydroxy-5-(1H-imidazol-4-yl)-1-pentanesulfonamide] | –
12 | 58.9 | O=S(=O)(CCCCCc1c[nH]cn1)NCc1cccc(Cl)c1 [Example 21, N-(3-Chlorobenzyl)-5-(1H-imidazol-4-yl)-1-pentanesulfonamide] | –
275 | 240 | O=S(=O)(CC(O)CCc1c[nH]cn1)NCc1ccc(Cl)cc1 (stereo not drawn) [Example 2, N-(4-Chlorobenzyl)-2-hydroxy-4-(1H-imidazol-4-yl)-1-butanesulfonamide] | –
1230 | 2090 | O=S1(=O)C2C=CC(c3c[nH]cn3)CC2CN1Cc1ccc(Cl)cc1 (stereo not drawn) [Example 42, 2-(4-Chlorohenzyl)-5-(1H-imidazol-4-yl)-2,3,3a, 4,5,7a-hexahydro-benzo[d]isothiazole 1,1-dioxide] | –
141 | 389 | O=S(=O)(CC(O)CCCc1c[nH]cn1)NCC1CCCCC1 (stereo not drawn) [Example 18, N-Cyclohexylmethyl-2-hydroxy-5-(1H-imidazol-4-yl)-1-pentanesulfonamide] | –
22400 | – | NC(CCCc1c[nH]cn1)CS(=O)(=O)NCc1ccc(Cl)cc1 (stereo not drawn) [Example 40, 2-Amino-N-(4-chlorobenzyl)-5-(1H-imidazol-4-yl)-1-pentanesulfonamide] | –
7.08 | 19.1 | O=S(=O)(CCCCCc1c[nH]cn1)NCc1ccc(F)cc1 [Example 28, N-(4-Fluorobenzyl)-5-(1H-imidazol-4-yl)-1-pentanesulfonamide] | –
81.3 | 724 | O=S(=O)(CC(O)CCCc1c[nH]cn1)NCc1ccccc1 (stereo not drawn) [Example 14, N-Benzyl-2-hydroxy-5-(1H-imidazol-4-yl)-1-pentanesulfonamide] | –
6.17 | 25.7 | Cc1ccc(CNS(=O)(=O)CCCCCc2c[nH]cn2)cc1 [Example 29, N-(4-Methylbenzyl)-5-(1H-imidazol-4-yl)-1-pentanesulfonamide] | –
10.2 | 17.4 | CN(Cc1ccc(Cl)cc1)S(=O)(=O)CCCCCc1c[nH]cn1 [Example 34, N-(4-Chlorobenzyl)-N-methyl-5-(1H-imidazol-4-yl)-1-pentanesulfonamide] | –
0.851 | 4.68 | O=S(=O)(C/C=C/CCc1c[nH]cn1)NCc1ccc(Cl)cc1 [Example 33, (E)-N-(4-Chlorobenzyl)-5-(1H-imidazol-4-yl)-1-pent-2-enesulfonamide] | –
1.51 | 9.33 | O=S(=O)(CCCCCc1c[nH]cn1)NCc1ccc(C(F)(F)F)cc1 [Example 30, N-(4-Trifluoromethylbenzyl)-5-(1H-imidazol-4-yl)-1-pentanesulfonamide] | –
44.7 | 302 | O=S(=O)(CCCCc1c[nH]cn1)NCCc1ccc(Cl)cc1 [Example 9, N-(4-Chlorophenethyl)-4-(1H-imidazol-4-yl)-1-butanesulfonamide] | –

SMILES | Ki (Histamine H3 receptor [1]; [3]) [nM] | Kb (Histamine H3 receptor [2]) [nM] | Ki (Histamine H3 receptor [1]) [nM]
O=S(=O)(CCCCc1c[nH]cn1)CCc1ccc(Cl)cc1 [Example 24, [4-(1H-Imidazol-4-yl)butyl] 4-chlorophenethyl sulfone] | 5.62 | 10.7 | –
O=S(=O)(CCCCc1c[nH]cn1)CCc1ccccc1 [Example 23, [4-(1H-Imidazol-4-yl)butyl]phenethyl sulfone] | – | 214 | 47.9
O=S(=O)(CCCCCc1c[nH]cn1)NCc1ccccc1 [Example 13, N-Benzyl-5-(1H-imidazol-4-yl)-1-pentanesulfonamide] | 8.91 | 58.9 | –
O=S(=O)(CCCCc1c[nH]cn1)Cc1ccc(Cl)cc1 [Example 25, [4-(1H-Imidazol-4-yl)butyl]-4-chlorobenzyl sulfone] | 18.6 | 30.2 | –
